Results taken from the NIST ThermoML archive (doi:10.1016/j.jct.2015.08.033).
± gives the expanded uncertainty stated by the source.

How the values were obtained:
[1] = mn = molality of the nth substance listed, in mol/kg; details: 100 kPa, Liquid, m2 = 0; for speed of sound: Frequency=3 MHz, Sing-around technique in a fixed-path interferometer; for mass density: Vibrating tube method
[2] = 100 kPa, Liquid; for speed of sound: Frequency=3 MHz, Sing-around technique in a fixed-path interferometer; for mass density: Vibrating tube method

SMILES | speed of sound ([1]; 298.15 K) | mass density ([1]; 298.15 K) | speed of sound ([1]; 303.15 K) | mass density ([1]; 303.15 K) | speed of sound ([1]; 308.15 K) | mass density ([1]; 308.15 K) | speed of sound ([1]; 313.15 K) | mass density ([1]; 313.15 K) | speed of sound ([1]; 318.15 K) | mass density ([1]; 318.15 K) | speed of sound ([2]; 298.15 K) | mass density ([2]; 298.15 K) | speed of sound ([2]; 303.15 K) | mass density ([2]; 303.15 K) | speed of sound ([2]; 308.15 K) | mass density ([2]; 308.15 K) | speed of sound ([2]; 313.15 K) | mass density ([2]; 313.15 K) | speed of sound ([2]; 318.15 K) | mass density ([2]; 318.15 K)
CC(=O)N(C)C [N,N-dimethylethanamide] + [Ba+2].[O-][Cl+3]([O-])([O-])[O-].[O-][Cl+3]([O-])([O-])[O-] | 1455.9 ± 1.3 m/s | 936.277 ± 0.54 kg/m3 | 1436 ± 1.3 m/s | 931.67 ± 0.54 kg/m3 | 1416.2 ± 1.3 m/s | 927.058 ± 0.54 kg/m3 | 1396.5 ± 1.3 m/s | 922.423 ± 0.54 kg/m3 | 1376.9 ± 1.3 m/s | 917.79 ± 0.55 kg/m3 | – | – | – | – | – | – | – | – | – | –
CN(C)C=O [dimethylformamide] + [Ba+2].[O-][Cl+3]([O-])([O-])[O-].[O-][Cl+3]([O-])([O-])[O-] | 1457.2 ± 1.3 m/s | 943.919 ± 0.54 kg/m3 | 1437.8 ± 1.3 m/s | 939.144 ± 0.54 kg/m3 | 1418.5 ± 1.3 m/s | 934.36 ± 0.55 kg/m3 | 1399.2 ± 1.3 m/s | 929.56 ± 0.55 kg/m3 | 1380 ± 1.3 m/s | 924.748 ± 0.55 kg/m3 | – | – | – | – | – | – | – | – | – | –
CC(=O)N(C)C [N,N-dimethylethanamide] | – | – | – | – | – | – | – | – | – | – | 1455.8 ± 1.3 m/s | 936.281 ± 0.14 kg/m3 | 1436 ± 1.3 m/s | 931.672 ± 0.14 kg/m3 | 1416.1 ± 1.3 m/s | 927.055 ± 0.14 kg/m3 | 1396.5 ± 1.3 m/s | 922.422 ± 0.14 kg/m3 | 1376.9 ± 1.3 m/s | 917.788 ± 0.14 kg/m3
CN(C)C=O [dimethylformamide] | – | – | – | – | – | – | – | – | – | – | 1457.2 ± 1.3 m/s | 943.913 ± 0.14 kg/m3 | 1437.9 ± 1.3 m/s | 939.139 ± 0.14 kg/m3 | 1418.5 ± 1.3 m/s | 934.354 ± 0.14 kg/m3 | 1399.3 ± 1.3 m/s | 929.554 ± 0.14 kg/m3 | 1380 ± 1.3 m/s | 924.744 ± 0.14 kg/m3
CC(=O)N(C)C [N,N-dimethylethanamide] + O=S(=O)([O-])C(F)(F)F.O=S(=O)([O-])C(F)(F)F.[Mg+2] | 1455.9 ± 1.3 m/s | 936.279 ± 0.46 kg/m3 | 1436 ± 1.3 m/s | 931.67 ± 0.46 kg/m3 | 1416.2 ± 1.3 m/s | 927.047 ± 0.46 kg/m3 | 1396.5 ± 1.3 m/s | 922.416 ± 0.46 kg/m3 | 1376.9 ± 1.3 m/s | 917.78 ± 0.46 kg/m3 | – | – | – | – | – | – | – | – | – | –
CN(C)C=O [dimethylformamide] + O=S(=O)([O-])C(F)(F)F.O=S(=O)([O-])C(F)(F)F.[Sr+2] | 1457.2 ± 1.3 m/s | 943.913 ± 0.51 kg/m3 | 1438 ± 1.3 m/s | 939.144 ± 0.51 kg/m3 | 1418.6 ± 1.3 m/s | 934.36 ± 0.51 kg/m3 | 1399.3 ± 1.3 m/s | 929.56 ± 0.51 kg/m3 | 1380.1 ± 1.3 m/s | 924.748 ± 0.51 kg/m3 | – | – | – | – | – | – | – | – | – | –
CC(=O)N(C)C [N,N-dimethylethanamide] + O=S(=O)([O-])C(F)(F)F.O=S(=O)([O-])C(F)(F)F.[Sr+2] | 1455.9 ± 1.3 m/s | 936.29 ± 0.52 kg/m3 | 1435.9 ± 1.3 m/s | 931.679 ± 0.52 kg/m3 | 1416.1 ± 1.3 m/s | 927.058 ± 0.52 kg/m3 | 1396.5 ± 1.3 m/s | 922.423 ± 0.52 kg/m3 | 1376.9 ± 1.3 m/s | 917.79 ± 0.52 kg/m3 | – | – | – | – | – | – | – | – | – | –
CN(C)C=O [dimethylformamide] + O=S(=O)([O-])C(F)(F)F.O=S(=O)([O-])C(F)(F)F.[Mg+2] | 1457.1 ± 1.3 m/s | 943.905 ± 0.43 kg/m3 | 1437.9 ± 1.3 m/s | 939.125 ± 0.43 kg/m3 | 1418.5 ± 1.3 m/s | 934.34 ± 0.43 kg/m3 | 1399.2 ± 1.3 m/s | 929.543 ± 0.43 kg/m3 | 1380 ± 1.3 m/s | 924.732 ± 0.43 kg/m3 | – | – | – | – | – | – | – | – | – | –
CC(=O)N(C)C [N,N-dimethylethanamide] + O=S(=O)([O-])C(F)(F)F.O=S(=O)([O-])C(F)(F)F.[Ca+2] | 1455.7 ± 1.3 m/s | 936.279 ± 0.45 kg/m3 | 1435.9 ± 1.3 m/s | 931.67 ± 0.45 kg/m3 | 1416.1 ± 1.3 m/s | 927.058 ± 0.45 kg/m3 | 1396.5 ± 1.3 m/s | 922.429 ± 0.45 kg/m3 | 1376.9 ± 1.3 m/s | 917.793 ± 0.45 kg/m3 | – | – | – | – | – | – | – | – | – | –
CN(C)C=O [dimethylformamide] + O=S(=O)([O-])C(F)(F)F.O=S(=O)([O-])C(F)(F)F.[Ca+2] | 1457.2 ± 1.3 m/s | 943.915 ± 0.44 kg/m3 | 1437.9 ± 1.3 m/s | 939.142 ± 0.44 kg/m3 | 1418.5 ± 1.3 m/s | 934.356 ± 0.45 kg/m3 | 1399.2 ± 1.3 m/s | 929.553 ± 0.45 kg/m3 | 1380 ± 1.3 m/s | 924.746 ± 0.45 kg/m3 | – | – | – | – | – | – | – | – | – | –
